Source: patent publication US20130079345A1, “[…] ACTIVE DISUBSTITUTED TRIAZINE DERIVATIVES” (BAYER INTELLECTUAL PROPERTY GMBH, priority 2010, published 2013)

Legend:
[1] = molecular target: T1, CDK2/CyclinA (Homo sapiens, UniProt P24941); experiment: LanthaScreen Eu Kinase Binding Assay, CDK2; settings: tracer 236, read-out: Affinity (Kd) CDK2
T1 construct: purchased Proqinase
Description: (§1) This protocol describes how the LanthaScreen Eu Kinase Binding Assay was performed to determine dissociation constants (Kd) of compounds of general formula (I) and CDK/Cyclin complexes. The principle behind this assay is based upon the binding and displacement of an Alexa Fluor 647-labeled tracer, which binds to the active site of kinases. Binding of the tracer to the kinase is detected using a Eu-labeled antibody. Simultaneous binding of both the tracer and antibody to the kinase gives rise to a FRET-signal. Binding of an inhibitor to the kinase competes for binding with the tracer, resulting in a loss of FRET.
(§2) The compounds of general formula (I) summarized in Table 1 were diluted from a 10 mM DMSO stock solution 1:10 in a total volume of 15 μL DMSO. This compound predilution was then serial diluted 1:3 over 8 steps in DMSO and briefly spun down. Each compound solution was now diluted 1:33.33 in kinase buffer (HEPES: 20 mM, pH: 8.0; MgCl2: 10 mM; DTT: 1 mM; Brij-35: 0.01%), mixed thoroughly and spun down. For every sample, 5 μL of the diluted compound were mixed with 5 μL tracer working solution (e.g. 60 nM tracer 236 in kinase buffer for CDK2/Cyclin A) and 5 μL CDK/Cyclin/Anti-GST-AB-working solution (e.g. 15 nM CDK2/Cyclin A, 1:250 dilution of Anti-GST-AB in kinase buffer) in a well of a small volume 384 well plate (Corning Incorporated, Corning, N.Y., USA; order no. 3673). […] For positive controls, in each well 5 μL of DMSO working solution (3% DMSO diluted in kinase buffer) was mixed with 5 μL CDK/Cyclin/Anti-GST-AB-working solution: (e.g. 15 nM CDK2/Cyclin A, 1:250 dilution of Anti-GST-AB in kinase buffer) and 5 μL Tracer working solution (e.g. 60 nM Tracer 236 in kinase buffer for CDK2/Cyclin A). Positive and negative controls were calculated from at least 8 different sample wells. The 384 well plates were mixed in a Teleshaker plate mixer (Beckman Coulter, Brea, Calif., USA) at 2000 rpm for 40 sec, and incubated for 1 h at room temperature before reading. The FRET signal was measured at 340 nm excitation, 665 nm and 615 nm emission (for the kinase tracer and LanthaScreen Eu-AB, respectively) with an Envision spectrophotometer (Perkin Elmer, Waltham, Mass., USA) with 50 μs delay and 300 μs integration time. Kd values were determined from the sigmoidal dose response curves with the software Quattro Workflow (Quattro GmbH, Munich, Germany).

[2] = molecular target: T2, CDK7/CyclinH/Mat1 (Homo sapiens, UniProt P50613); experiment: LanthaScreen Eu Kinase Binding Assay, CDK7; settings: tracer 236, read-out: Affinity (Kd) CDK7
T2 construct: purchased Carna Biosciences
T2 sequence (P50613 whole entry): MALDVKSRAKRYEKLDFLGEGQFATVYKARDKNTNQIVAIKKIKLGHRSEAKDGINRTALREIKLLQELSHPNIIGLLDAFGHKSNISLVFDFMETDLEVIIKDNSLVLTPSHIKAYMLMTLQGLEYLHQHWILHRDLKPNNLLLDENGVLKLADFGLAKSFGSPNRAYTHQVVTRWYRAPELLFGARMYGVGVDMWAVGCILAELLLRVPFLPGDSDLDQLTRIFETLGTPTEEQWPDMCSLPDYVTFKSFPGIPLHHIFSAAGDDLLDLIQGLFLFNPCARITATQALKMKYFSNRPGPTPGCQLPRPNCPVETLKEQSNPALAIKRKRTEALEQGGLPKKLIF
T2 sequence (P51946 whole entry partner): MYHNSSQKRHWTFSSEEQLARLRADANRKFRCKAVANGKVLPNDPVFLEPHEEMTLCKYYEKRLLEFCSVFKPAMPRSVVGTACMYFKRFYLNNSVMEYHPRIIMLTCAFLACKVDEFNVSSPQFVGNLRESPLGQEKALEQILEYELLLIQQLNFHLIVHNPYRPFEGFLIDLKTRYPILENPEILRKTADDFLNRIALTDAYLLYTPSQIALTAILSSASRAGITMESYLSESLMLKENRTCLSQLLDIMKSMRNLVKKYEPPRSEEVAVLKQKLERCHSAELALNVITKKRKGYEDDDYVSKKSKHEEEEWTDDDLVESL
T2 sequence (P51948 whole entry partner): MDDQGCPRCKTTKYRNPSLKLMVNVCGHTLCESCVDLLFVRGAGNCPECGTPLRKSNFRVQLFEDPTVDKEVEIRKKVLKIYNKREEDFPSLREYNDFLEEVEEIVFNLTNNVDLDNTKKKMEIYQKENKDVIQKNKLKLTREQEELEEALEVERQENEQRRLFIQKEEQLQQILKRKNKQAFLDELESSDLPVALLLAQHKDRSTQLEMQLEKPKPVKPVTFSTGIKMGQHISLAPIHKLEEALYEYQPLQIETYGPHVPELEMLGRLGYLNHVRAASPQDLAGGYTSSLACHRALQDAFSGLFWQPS
Description: as §1, §2

[3] = molecular target: T3, CDK8/Cyclin C (Homo sapiens, UniProt P49336); experiment: LanthaScreen Eu Kinase Binding Assay, CDK8; settings: tracer 236, read-out: Affinity (Kd) CDK8
T3 construct: purchased Invitrogen
T3 sequence (P49336 whole entry): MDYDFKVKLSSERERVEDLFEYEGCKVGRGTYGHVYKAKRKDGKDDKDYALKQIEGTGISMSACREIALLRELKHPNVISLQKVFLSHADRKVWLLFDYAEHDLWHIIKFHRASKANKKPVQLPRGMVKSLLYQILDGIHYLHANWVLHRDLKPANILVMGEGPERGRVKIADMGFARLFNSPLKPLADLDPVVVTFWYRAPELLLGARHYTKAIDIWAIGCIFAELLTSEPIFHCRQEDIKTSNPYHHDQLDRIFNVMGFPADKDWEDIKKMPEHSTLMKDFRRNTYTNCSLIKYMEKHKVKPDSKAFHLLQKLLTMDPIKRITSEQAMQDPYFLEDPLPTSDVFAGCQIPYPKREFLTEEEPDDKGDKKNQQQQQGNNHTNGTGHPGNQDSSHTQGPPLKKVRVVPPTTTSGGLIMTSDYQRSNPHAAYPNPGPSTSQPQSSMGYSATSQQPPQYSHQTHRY
T3 sequence (P24863 whole entry partner): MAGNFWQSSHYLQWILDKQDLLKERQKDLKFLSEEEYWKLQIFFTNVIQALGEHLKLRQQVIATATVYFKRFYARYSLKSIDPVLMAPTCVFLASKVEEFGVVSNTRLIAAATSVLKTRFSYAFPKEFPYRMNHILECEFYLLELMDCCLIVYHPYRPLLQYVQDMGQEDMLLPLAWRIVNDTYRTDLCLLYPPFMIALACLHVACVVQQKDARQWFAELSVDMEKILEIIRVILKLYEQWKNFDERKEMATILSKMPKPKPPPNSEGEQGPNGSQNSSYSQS
Description: as §1, §2

[4] = molecular target: T4, CDK9/Cyclin T1 (Homo sapiens, UniProt P50750); experiment: LanthaScreen Eu Kinase Binding Assay, CDK9/Cyclin T1; settings: tracer 236, read-out: Affinity (Kd) CDK9/Cyclin T1
T4 construct: purchased Invitrogen
T4 sequence (P50750 whole entry): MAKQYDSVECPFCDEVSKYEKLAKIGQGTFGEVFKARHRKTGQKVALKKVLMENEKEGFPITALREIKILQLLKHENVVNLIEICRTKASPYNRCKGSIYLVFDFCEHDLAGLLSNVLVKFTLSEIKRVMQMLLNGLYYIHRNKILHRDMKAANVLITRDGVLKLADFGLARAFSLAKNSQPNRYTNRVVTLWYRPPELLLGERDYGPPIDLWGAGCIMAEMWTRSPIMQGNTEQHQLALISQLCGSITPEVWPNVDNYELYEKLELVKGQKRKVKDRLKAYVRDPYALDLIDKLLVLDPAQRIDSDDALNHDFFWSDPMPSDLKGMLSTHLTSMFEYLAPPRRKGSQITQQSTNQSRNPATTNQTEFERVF
T4 sequence (O60563 whole entry partner): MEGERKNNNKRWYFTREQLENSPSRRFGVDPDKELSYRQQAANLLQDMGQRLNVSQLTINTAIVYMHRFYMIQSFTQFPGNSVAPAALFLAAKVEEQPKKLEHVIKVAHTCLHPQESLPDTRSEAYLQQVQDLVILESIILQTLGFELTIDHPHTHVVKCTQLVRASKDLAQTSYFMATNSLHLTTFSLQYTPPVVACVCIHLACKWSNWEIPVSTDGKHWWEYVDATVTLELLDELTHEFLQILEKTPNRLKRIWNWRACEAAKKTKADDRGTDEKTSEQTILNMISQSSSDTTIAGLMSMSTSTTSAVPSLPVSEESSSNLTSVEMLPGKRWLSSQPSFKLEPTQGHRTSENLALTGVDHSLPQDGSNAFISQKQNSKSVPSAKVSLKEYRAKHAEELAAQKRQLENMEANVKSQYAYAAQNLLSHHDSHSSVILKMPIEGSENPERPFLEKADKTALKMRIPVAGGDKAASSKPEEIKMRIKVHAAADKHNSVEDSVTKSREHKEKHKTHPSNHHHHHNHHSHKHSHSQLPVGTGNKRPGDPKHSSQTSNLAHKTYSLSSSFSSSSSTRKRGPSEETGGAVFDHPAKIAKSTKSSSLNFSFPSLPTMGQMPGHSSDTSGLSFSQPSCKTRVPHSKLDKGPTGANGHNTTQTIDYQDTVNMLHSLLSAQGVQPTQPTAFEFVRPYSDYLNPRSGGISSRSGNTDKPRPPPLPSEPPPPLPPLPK
Description: as §1, §2

[5] = molecular target: T5, CDK9/Cyclin K (Homo sapiens, UniProt P50750); experiment: LanthaScreen Eu Kinase Binding Assay, CDK9/Cyclin K; settings: tracer 236, read-out: Affinity (Kd) CDK9/Cyclin K
T5 construct: purchased Invitrogen
T5 sequence (P50750 whole entry): as the sequence (P50750 whole entry) above
T5 sequence (O75909 whole entry partner): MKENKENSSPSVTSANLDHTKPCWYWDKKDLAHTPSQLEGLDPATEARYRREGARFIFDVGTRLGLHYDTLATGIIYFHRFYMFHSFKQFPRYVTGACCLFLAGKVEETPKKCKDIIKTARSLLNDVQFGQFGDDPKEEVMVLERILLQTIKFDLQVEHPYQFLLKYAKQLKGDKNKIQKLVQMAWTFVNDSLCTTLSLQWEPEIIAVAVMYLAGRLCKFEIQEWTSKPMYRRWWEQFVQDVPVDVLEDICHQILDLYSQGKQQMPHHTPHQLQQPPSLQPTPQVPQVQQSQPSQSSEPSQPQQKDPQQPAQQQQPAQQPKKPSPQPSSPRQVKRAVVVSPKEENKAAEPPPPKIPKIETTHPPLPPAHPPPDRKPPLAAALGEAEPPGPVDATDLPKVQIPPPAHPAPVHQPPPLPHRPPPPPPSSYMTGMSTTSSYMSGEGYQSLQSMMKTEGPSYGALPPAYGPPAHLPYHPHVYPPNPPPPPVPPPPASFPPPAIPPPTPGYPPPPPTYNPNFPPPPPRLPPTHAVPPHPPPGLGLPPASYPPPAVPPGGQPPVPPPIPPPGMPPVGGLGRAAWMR
Description: as §1, §2

[6] = system: NF-kappaB reporter gene activation in HEK293 cells; experiment: NF-kappaB reporter assay; type: cell-based; settings: Homo sapiens, 20 ng/ml TNF alpha, 5 h
Description: Cells were maintained in RPMI cell culture medium+glutamine (PAN Biotech GmbH, Aidenbach, Germany) supplemented with 10% fetal calf serum (PAA Laboratories GmbH, Pasching, Austria) and grown at 37° C., 5% CO2. HEK293 cells grown to 50% confluence were transfected with the Amaxa® Cell Line Nucleofector® Kit V (Lonza, Basel, Switzerland, catalog #VCA-1003). Transfections were performed according to manufacturer's optimized protocol for transfection of HEK293 cells. In brief, 2×10^5 cells were transfected with 5 μg highly purified plasmid DNA. Cells were transfected with a NF-kappa B reporter plasmid (pNFkBluc), pTALluc for control, or pMAXGFP for transfection control. After transfection, cells were taken up in 500 μL RPMI1640 cell culture medium, incubated for 1 h at 37° C., and 4.5 ml DMEM without phenol red were added per transfection. Transfected cells were seeded in 96 well plates (Greiner Bio-One, Frickenhausen, Germany, catalog #655098) with 100 μL cell suspension per well and incubated for 48 h. To each well, 100 μL DMEM with 2× concentrated compound diluted from 10 mM DMSO stocks, or 100 μL DMEM with 0.4% DMSO for control wells, was added. The compounds of general formula (I) summarized in Table 6 were used in this assay. Cells were stimulated with 20 ng/ml TNF alpha, and plates were incubated for 5 h at 37° C./5% CO2. Cell culture supernatants were removed to leave 100 μl medium per well, followed by addition of 100 μl Bright Glo luciferase assay reagent (Promega, Madison, Wis., USA, catalog #E2620), and shaking for 5 minutes in the dark. Luminescence was measured with a Victor Photospectrometer (Perkin Elmer, Waltham, Mass., USA). […], values were calculated with the software Excel Fit (IDBS, Guildford, UK) from 2-fold dilution series comprising at least 10 concentrations in duplicates.

[7] = system: LPS-induced TNF alpha release in PBMCs; experiment: TNF alpha release assay; type: cell-based; settings: Homo sapiens, PBMC, 6 h, 1 μg/mL LPS
Description: Freshly isolated peripheral blood mononuclear cells (PBMCs) were seeded in 96-well cell culture plates with 200,000 cells in 100 μl cell culture medium (DMEM cell culture medium+glutamine from PAN Biotech GmbH, Aidenbach, Germany) supplemented with 10% fetal calf serum (PAA Laboratories GmbH, Pasching, Austria) per well and incubated overnight at 37° C., 5% CO2. To each well, 100 μL cell culture medium with 2× concentrated test compounds diluted from 10 mM DMSO stocks, or 100 μL DMEM with 0.4% DMSO for control wells, was added. The compounds of general formula (I) summarized in Table 6 were used in this assay. After incubation for 1 h at 37° C., 5% CO2, cells were stimulated with 1 μg/mL LPS (Lipopolysaccharides, Sigma, catalog #L4391-1MG; 1 mg/ml stock solution), or left untreated for negative controls, and plates were incubated for 6 h at 37° C./5% CO2. The cell culture plates were centrifuged at 2000 rpm for 5 minutes, and supernatants were transferred to fresh 96-well polypropylene plates. 25 µL of supernatants were transferred into 96-well-plates of the human TNF alpha-tissue culture kit (Meso Scale Discovery, Gaithersburg, Md., USA), and manufacturer's instructions were followed for analysis of TNF alpha levels. Chemoluminescence was measured in the Mesoscale Sector Imager, and EC50 values were calculated with the software Excel Fit (IDBS, Guildford, UK) from 2-fold dilution series comprising at least 6 concentrations in duplicates.

[8] = system: RNA Polymerase II Ser2 phosphorylation (cellular CDK9 activity) in HCT-116 cells; experiment: RNA-Polymerase II Ser2 cellular phosphorylation assay; type: cell-based; settings: Homo sapiens, normalized with tubulin
Description: HCT-116 cells (DSMZ, Braunschweig, Germany) were maintained in Mc Coy's cell culture medium+glutamine (PAN Biotech GmbH, Aidenbach, Germany) supplemented with 10% fetal calf serum (PAA Laboratories GmbH, Pasching, Austria) and grown at 37° C., 5% CO2. For the cellular phosphorylation assay, cells were seeded with 2×10^5 cells/well/1 ml in 24-well plates (Greiner Bio—One, Frickenhausen, Germany; catalog #662160). The compounds of general formula (I) summarized in Table 6 were diluted from a 10 mM DMSO stock solution 1:10 in a total volume of 15 μL DMSO. After overnight incubation at 37° C./5% CO2, 1.5 μL of a compound diluted in DMSO was added to each sample well. Wells with cells and 0.15% DMSO in culture medium were used as positive controls, wells without cells and 0.15% DMSO in culture medium were used as negative controls. The cells were incubated with the compounds for 72 h at 37° C./5% CO2. Before lysis, cells were washed with phosphate buffered saline. Phosphorylation of RNA Polymerase II Ser2 and tubulin levels for normalization were analyzed afterwards with the Multi-Array technology (Meso Scale Discovery, Gaithersburg, Md., USA), a combination of antibody coupled electrochemiluminescence detection and patterned arrays. Manufacturer's instructions were followed and all solutions were purchased from Meso Scale Discovery. In brief, cells were lysed by 30 min incubation in CLB1 lysis buffer (Zeptosens, Witterswil, Switzerland; 60 μL per well), and supernatants were cleared by centrifugation. For analysis of RNA Polymerase II Ser2-phosphorylation, lysates were diluted 1:50 with Meso Scale Lysis Buffer supplemented with phosphatase- and protease-inhibitors, and 25 µL of each sample was pipetted in a well of a MSD Multi-Array 96-Well Plate Sector® Imager High Bind Plate (Meso Scale Discovery; catalog #L15XB-3/L11XB-3), and incubated for 2 h at room temperature. […] Meso Scale Tris Wash Buffer supplemented with 3% w/v Meso Scale Blocker A were added per well, then plates were sealed and incubated 1 h with vigorous shaking. Plates were washed with 1× Tris Wash Buffer (10× Meso Scale Wash Buffer diluted 1:10 in destilled water), 25 μL of antibody solution was added (CTD7 3E10 antibody from Helmholtz Zentrum Munich, Germany, diluted 1:100 in Meso Scale Tris Wash Buffer supplemented with 1% w/v Meso Scale Blocker A), and plates were washed three times in 1× Tris Wash Buffer. 25 μL of MSD® SULFO-TAG™ Goat-Anti-Rat-Antibody (Meso Scale Discovery, catalog #R^32AH-1, diluted 1:125 in Tris Wash Buffer with 1% (w/v) blocker A) were added per well, plates were sealed and incubated with vigorous shaking for 1 h at room temperature. Finally, plates were washed three times with Tris Wash Buffer, 150 μl 2× Read Buffer (Meso Scale Discovery) were added per well and plates were analyzed immediately in a Sector Imager from Meso Scale Discovery. For determination of tubulin protein levels, samples were analyzed with the protocol for RNA Polymerase II Ser2-phosphorylation, with an anti-tubulin antibody (rabbit; BIODESIGN International, catalog #T59840R, diluted 1:100) and a MSD® SULFO-TAG™ […] (Meso Scale Discovery, catalog #R^32AH-1, diluted 1:125). RNA Polymerase II Ser2 phosphorylation was normalized with tubulin protein levels, and EC50 values were calculated with the software XLFit (IDBS, Guildford, UK) from 2-fold dilution series comprising 6 concentrations in duplicates.

| Kd [1] | Kd [2] | Kd [3] | Kd [4] | Kd [5] | Structure (SMILES) | IC50 [6] | IC50 [7] | IC50 [8] |
| --- | --- | --- | --- | --- | --- | --- | --- | --- |
| 6460 nM | > 10000 nM | > 10000 nM | 141 nM | 2460 nM | NS(=O)(=O)Cc1cccc(Nc2ncnc(-c3cccc4c3OCO4)n2)c1 [Compound B15, 3-[(4-(1,3-Benzodioxol-4-yl)-1,3,5-triazin-2-yl)amino]benzenemethanesulfonamide] |  |  |  |
|  | > 10000 nM | 1760 nM | 104 nM | 302 nM | COc1ccncc1-c1ncnc(Nc2cccc(CS(N)(=O)=O)c2)n1 [Compound B18, 3-[(4-(4-Methoxypyridin-3-yl)-1,3,5-triazin-2-yl)amino]benzenemethanesulfonamide] |  |  |  |
| 2360 nM | > 30000 nM | > 10000 nM | 478 nM | 159 nM | COc1ccccc1-c1ncnc(Nc2cccc(NC(=O)Nc3ccccc3)c2)n1 [Compound N1, N-[3-((4-(2-Methoxyphenyl)-1,3,5-triazin-2-yl)amino)phenyl]-N′-phenyl-urea] | 18400 nM | 6710 nM |  |
|  | > 10000 nM | > 10000 nM | 55 nM | 101 nM | COc1ccc(Cl)cc1-c1ncnc(Nc2cccc(CS(N)(=O)=O)c2)n1 [Compound B7, 3-[(4-(5-Chloro-2-methoxyphenyl)-1,3,5-triazin-2-yl)amino]benzenemethanesulfonamide] |  |  |  |
|  | > 10000 nM |  | 99 nM | 26.2 nM | Nc1ccc(-c2ncnc(Nc3cccc(CS(N)(=O)=O)c3)n2)cn1 [Compound B23, 3-[(4-(6-Aminopyridin-3-yl)-1,3,5-triazin-2-yl)amino]benzenemethanesulfonamide] | > 30000 nM |  | > 30000 nM |
